From the NIST ThermoML archive (doi:10.1016/j.jct.2016.03.026)
Values joined by “and” are separate entries in the source; they are usually repeats but may differ in a detail not shown here. Equal entries are not always repeated.

Test: xn = mol fraction of the nth substance listed
Settings: Fluid (supercritical or subcritical phases), Frequency=5 MHz, Pulse-echo method

O=C=O [carbon dioxide] + CO
Settings | speed of sound
313.15 K, 90000 kPa, x1 = 0.97 | 980.1 m/s
313.15 K, 100110 kPa, x1 = 0.97 | 1019.5 m/s
313.15 K, 109900 kPa, x1 = 0.97 | 1055.1 m/s
313.15 K, 120040 kPa, x1 = 0.97 | 1089.6 m/s
313.15 K, 140110 kPa, x1 = 0.97 | 1152.5 m/s
313.15 K, 159960 kPa, x1 = 0.97 | 1208.8 m/s
313.15 K, 179840 kPa, x1 = 0.97 | 1260.7 m/s
323.14 K, 24960 kPa, x1 = 0.925 | 536.3 m/s and 537.4 m/s
323.14 K, 24980 kPa, x1 = 0.925 | 537.5 m/s
323.14 K, 25000 kPa, x1 = 0.925 | 537.5 m/s
323.14 K, 29980 kPa, x1 = 0.925 | 591.2 m/s
323.14 K, 29990 kPa, x1 = 0.925 | 591.2 m/s and 590.7 m/s and 591.5 m/s
323.14 K, 34960 kPa, x1 = 0.925 | 636.5 m/s and 637.2 m/s
323.14 K, 34980 kPa, x1 = 0.925 | 637.4 m/s
323.14 K, 34990 kPa, x1 = 0.925 | 637.5 m/s
323.14 K, 39980 kPa, x1 = 0.925 | 678 m/s and 677.9 m/s
323.14 K, 39990 kPa, x1 = 0.925 | 678.6 m/s
323.14 K, 40000 kPa, x1 = 0.925 | 678.2 m/s
323.14 K, 44980 kPa, x1 = 0.925 | 714.6 m/s and 714.8 m/s
323.14 K, 45000 kPa, x1 = 0.925 | 714.7 m/s
323.14 K, 49960 kPa, x1 = 0.925 | 748 m/s
323.14 K, 49980 kPa, x1 = 0.925 | 748.4 m/s and 748.2 m/s
323.14 K, 50000 kPa, x1 = 0.925 | 748.4 m/s
323.14 K, 54960 kPa, x1 = 0.925 | 779.2 m/s
323.14 K, 54980 kPa, x1 = 0.925 | 779.1 m/s
323.14 K, 55000 kPa, x1 = 0.925 | 779.3 m/s
323.14 K, 55010 kPa, x1 = 0.925 | 779.4 m/s
323.14 K, 59980 kPa, x1 = 0.925 | 807.9 m/s and 808.1 m/s
323.14 K, 59990 kPa, x1 = 0.925 | 808.2 m/s
323.14 K, 60030 kPa, x1 = 0.925 | 808.2 m/s
323.14 K, 64970 kPa, x1 = 0.925 | 835.2 m/s and 835.3 m/s and 835.1 m/s
323.14 K, 64990 kPa, x1 = 0.925 | 835.4 m/s
323.14 K, 69970 kPa, x1 = 0.925 | 860.9 m/s and 860.8 m/s
323.14 K, 69980 kPa, x1 = 0.925 | 861 m/s
323.14 K, 69990 kPa, x1 = 0.925 | 860.9 m/s
323.14 K, 74950 kPa, x1 = 0.925 | 885 m/s
323.14 K, 74990 kPa, x1 = 0.925 | 885.2 m/s
323.14 K, 75000 kPa, x1 = 0.925 | 885.4 m/s
323.14 K, 75060 kPa, x1 = 0.925 | 885.5 m/s
323.14 K, 79970 kPa, x1 = 0.925 | 908.3 m/s
323.14 K, 79990 kPa, x1 = 0.925 | 908.5 m/s and 908.4 m/s
323.14 K, 80000 kPa, x1 = 0.925 | 908.4 m/s
323.14 K, 89990 kPa, x1 = 0.925 | 951.7 m/s
323.14 K, 90000 kPa, x1 = 0.925 | 951.8 m/s and 952 m/s
323.14 K, 99950 kPa, x1 = 0.925 | 991.5 m/s
323.14 K, 100000 kPa, x1 = 0.925 | 992.1 m/s
323.14 K, 100010 kPa, x1 = 0.925 | 991.8 m/s and 991.7 m/s
323.14 K, 109960 kPa, x1 = 0.925 | 1028.8 m/s
323.14 K, 109980 kPa, x1 = 0.925 | 1029.1 m/s and 1028.9 m/s
323.14 K, 109990 kPa, x1 = 0.925 | 1029 m/s
323.14 K, 119970 kPa, x1 = 0.925 | 1063.9 m/s and 1063.8 m/s
323.14 K, 119990 kPa, x1 = 0.925 | 1063.9 m/s
323.14 K, 129960 kPa, x1 = 0.925 | 1096.8 m/s
323.14 K, 129980 kPa, x1 = 0.925 | 1096.8 m/s
323.14 K, 129990 kPa, x1 = 0.925 | 1096.8 m/s
323.14 K, 130020 kPa, x1 = 0.925 | 1096.9 m/s
323.14 K, 139960 kPa, x1 = 0.925 | 1128 m/s
323.14 K, 139990 kPa, x1 = 0.925 | 1128 m/s and 1128.1 m/s
323.14 K, 140000 kPa, x1 = 0.925 | 1128.1 m/s
323.14 K, 149960 kPa, x1 = 0.925 | 1157.6 m/s
323.14 K, 149980 kPa, x1 = 0.925 | 1157.7 m/s
323.14 K, 149990 kPa, x1 = 0.925 | 1157.7 m/s
323.14 K, 150010 kPa, x1 = 0.925 | 1157.8 m/s
323.14 K, 159990 kPa, x1 = 0.925 | 1186.2 m/s
323.14 K, 160000 kPa, x1 = 0.925 | 1187 m/s
323.14 K, 160010 kPa, x1 = 0.925 | 1186 m/s
323.14 K, 160050 kPa, x1 = 0.925 | 1186.2 m/s
323.14 K, 169940 kPa, x1 = 0.925 | 1213.1 m/s
323.14 K, 169980 kPa, x1 = 0.925 | 1213.1 m/s and 1213.3 m/s
323.14 K, 170010 kPa, x1 = 0.925 | 1213.2 m/s
323.14 K, 179960 kPa, x1 = 0.925 | 1239.4 m/s
323.14 K, 180000 kPa, x1 = 0.925 | 1239.1 m/s and 1239.5 m/s
323.14 K, 180100 kPa, x1 = 0.925 | 1239.2 m/s
323.14 K, 189980 kPa, x1 = 0.925 | 1263.9 m/s
323.14 K, 190000 kPa, x1 = 0.925 | 1264.3 m/s
323.14 K, 190010 kPa, x1 = 0.925 | 1264.5 m/s
323.14 K, 190050 kPa, x1 = 0.925 | 1264.6 m/s
323.15 K, 24960 kPa, x1 = 0.8502 | 549.5 m/s
323.15 K, 25000 kPa, x1 = 0.7534 | 585.5 m/s
323.15 K, 29950 kPa, x1 = 0.7534 | 635.7 m/s
323.15 K, 30020 kPa, x1 = 0.8502 | 602.8 m/s
323.15 K, 35040 kPa, x1 = 0.7534 | 680.4 m/s
323.15 K, 35100 kPa, x1 = 0.8502 | 648.9 m/s
323.15 K, 40000 kPa, x1 = 0.7534 | 719.1 m/s
323.15 K, 40050 kPa, x1 = 0.8502 | 688.4 m/s
323.15 K, 45010 kPa, x1 = 0.8502 | 724.5 m/s
323.15 K, 45070 kPa, x1 = 0.7534 | 755 m/s
323.15 K, 49920 kPa, x1 = 0.8502 | 757.3 m/s
323.15 K, 50420 kPa, x1 = 0.7534 | 789.8 m/s
323.15 K, 55040 kPa, x1 = 0.8502 | 788.7 m/s
323.15 K, 55120 kPa, x1 = 0.7534 | 818.2 m/s
323.15 K, 59980 kPa, x1 = 0.8502 | 817.2 m/s
323.15 K, 60110 kPa, x1 = 0.7534 | 846.6 m/s
323.15 K, 64840 kPa, x1 = 0.8502 | 843.5 m/s
323.15 K, 65810 kPa, x1 = 0.7534 | 876.8 m/s
323.15 K, 69880 kPa, x1 = 0.8502 | 869.3 m/s
323.15 K, 70220 kPa, x1 = 0.7534 | 899.1 m/s
323.15 K, 75110 kPa, x1 = 0.8502 | 894.6 m/s
323.15 K, 75220 kPa, x1 = 0.7534 | 923.1 m/s
323.15 K, 80180 kPa, x1 = 0.8502 | 918 m/s
323.15 K, 89680 kPa, x1 = 0.8502 | 959.3 m/s
323.15 K, 90000 kPa, x1 = 0.7534 | 988.1 m/s
323.15 K, 99900 kPa, x1 = 0.8502 | 1000.3 m/s
323.15 K, 100230 kPa, x1 = 0.7534 | 1029 m/s
323.15 K, 109760 kPa, x1 = 0.8502 | 1037.3 m/s
323.15 K, 109960 kPa, x1 = 0.7534 | 1065.3 m/s
323.15 K, 119510 kPa, x1 = 0.8502 | 1071.6 m/s
323.15 K, 120580 kPa, x1 = 0.7534 | 1102.5 m/s
323.15 K, 139890 kPa, x1 = 0.8502 | 1137.2 m/s
323.15 K, 140520 kPa, x1 = 0.7534 | 1166.6 m/s
323.15 K, 160410 kPa, x1 = 0.7534 | 1224.7 m/s
323.15 K, 180460 kPa, x1 = 0.7534 | 1278.6 m/s
323.16 K, 69980 kPa, x1 = 0.9803 | 855.3 m/s
323.16 K, 74960 kPa, x1 = 0.9803 | 879.8 m/s
323.16 K, 79950 kPa, x1 = 0.9803 | 903.2 m/s
323.16 K, 89640 kPa, x1 = 0.9803 | 945.6 m/s
323.16 K, 99690 kPa, x1 = 0.9803 | 986.1 m/s
323.16 K, 110360 kPa, x1 = 0.9803 | 1025.6 m/s
323.16 K, 120030 kPa, x1 = 0.9803 | 1059.8 m/s
323.16 K, 129970 kPa, x1 = 0.9803 | 1092.5 m/s
323.16 K, 140230 kPa, x1 = 0.9803 | 1124.5 m/s
323.16 K, 150140 kPa, x1 = 0.9803 | 1153.8 m/s
